According to US8323659B2, “Method for diagnosing and/or treating tumor” (Keio University, priority 2008, dated 2012):

Columns and labels:
[1] = tested on: CD8+ cells of genetically modified mice expressing HLA-A24 (A24-Tg); experiment: Gamma interferon production by CD8+ cells of peptide-immunized HLA-A24 transgenic mice; assay type: cell-based, mouse; conditions: for gamma interferon producing activity at lower concentrations: peptide below 2 μg/mL, normalized to 10 μg/mL as 100%
Method: First, dendritic cell precursors were isolated from bone marrow cells of A24-Tg mice using LineagePanel Streptavidin Plus Magnetic Particles-DM (BD Biosciences Inc.) and cultured for 6 days in the presence of GM-CSF (10 ng/mL, Peprotech Inc.) to induce their differentiation. The dendritic cells thus obtained were cultured for 6 hours in the presence of each of the peptides having the sequences shown below (10 μg/mL, synthesized by Invitrogen Inc.), and then injected subcutaneously to genetically modified mice expressing HLA-A24 at 5×10^6 cells per mouse for immunization. In addition, SAGE which has been identified as a testicular tumor antigen and for which a HLA-A24-restricted peptide has been established, was used for a positive control experiment (Cancer Research 60:3848-3855, 2000), and dendritic cells not stimulated by a peptide were used as the negative control.
Spleen cells were collected from the mice one week after the immunization with each of the peptides, and were cultured under the stimulation by 10 μg/mL of the same peptide as used for immunization for 6 days, from which CD8+ cells were isolated by the MACS method using antibody-coupled magnetic beads from Miltenyi Inc . In order to produce cytokine at a higher level, the CD8+ cells (1×10^6) were further stimulated for 24 hours by 0.08 to 10 μg/mL of the same peptide in the presence of APC (1×10^7 cells) that was obtained by collecting the spleen cells freshly from a HLA-A24 expressing-genetically modified mouse and then inactivating the cells with mitomycin C. Amounts of gamma interferon contained in the culture supernatants were measured by Cytometric Bead Array kit for mouse (BD Biosciences Inc.).

[2] = tested on: CD8+ cells from PBMC of healthy individuals positive for HLA-A24; experiment: Gamma interferon production by peptide-induced human CD8+ cells; assay type: cell-based; conditions: IL-2 and APC; for gamma interferon production capability: FIG. 5D
Method: (§1) First, blood was collected from two healthy individuals positive for HLA-A24, to which 1/10 volume of 4% sodium citrate was added, and was overlaid on Ficoll-Paque (Amersham Inc.) and centrifuged (1500 rpm, 20 min, room temperature). The fraction of monocytes (PBMC) separated in the interface was cultured for 6 days under the stimulation with 10 μg/mL of each peptide, from which CD8+ cells were isolated by the MACS method using antibody-coupled magnetic beads (Miltenyi Inc). In order to estimate cytotoxic activity of the isolated CD8+ cells, they were cocultured with human colon cancer cell line COLO320 (HLA-A24^+ SAGE^+ HERV-H ^+ Env^+) as the target cell at a mixing ratio of [CD8+ cell:COLO320 tumor cell=50:1] for 6 hours. The killed tumor cells were detected using Immunocyto Cytotoxity Detection Kit (MBL inc.), and tumor-specific toxicity rates were calculated according to the protocol attached to the kit. Results are plotted in the graph of FIG. 5A.
In order to evaluate the gamma interferon production capability, 1×10^6 of CD8+ cells were stimulated by 1 or 10 μg/mL of each peptide for 24 hours in the presence of IL-2 (100 U/mL, Peprotech Inc.) and APC (5×10^6 cells) which was obtained by collecting the PBMCs freshly from a healthy individual and then inactivating them with mitomycin C. Amounts of gamma interferon contained in the culture supernatants were measured by Cytometric Bead Array kit for human (BD Biosciences Inc.). Results are plotted in the graph of FIG. 5B.
The gamma interferon production capability was evaluated by stimulating CD8+ cells with 0.1, 1 or 10 μg/mL of each peptide in the presence of IL-2 and APC. The results are plotted in the graph of FIG. 5D.

[3] = tested on: PKH67-labeled CD8+ cells in SCID mice; experiment: In vivo proliferation of peptide-induced CD8+ cells in immunodeficiency mice; parameters: species or system mouse; conditions: FIG. 8; for content of CD8+ cells in vivo: SCID mice, peptide 100 μg per animal via tail vein, 5 days, spleen and peripheral blood, versus no peptide administered
Method: In the same method as described in Example 4, CD8+ cells were obtained by culturing PBMCs with the stimulation of HERV-H#1 (final concentration 10 μg/mL). The CD8+ cells for a control group were obtained by culturing under the stimulation by NY-ESO-1 peptide (SEQ ID NO: 23) in place of HERV-H#1 at the same concentration. The CD8+ cells thus obtained were fluorescence-labeled by mixing with a fluorescent dye PKH67 (Sigma Corp.) and incubating for 10 min.
The PKH67-labeled CD8+ cells (2×10^6 cells), PBMCs (2×10^7 cells) collected from the same healthy individual, and a peptide (HERV-H Env or NY-ESO-1 (control groups) at 100 μg per animal) were injected via the tail vein of immunodeficiency mice (the SCID mice, CLEA Japan Inc.). Spleen cells and peripheral blood cells were collected from the mice on 5 days after the administration, and the content of PKH67-labeled CD8+ cells was measured by flow cytometry (BD Inc.). Mice treated similarly except that no peptide was administered were used for a control experiment.

[4] = tested on: human pancreatic tumor cell line Panc-1; experiment: Toxicity of peptide-induced CD8+ cells (HLA-A02 positive PBMC) against Panc-1; assay type: cell-based; conditions: two HLA-A02 positive healthy individuals; FIG. 5E
[5] = tested on: human colon cancer cell line COLO320; experiment: Toxicity of peptide-induced CD8+ cells (HLA-A24 positive PBMC) against COLO320; assay type: cell-based
Method: as §1
The toxicity against tumor cells was evaluated by setting the ratio of CD8+ cells:COLO320 tumor cells to 6.25:1, 12.5:1, 25:1 or 50:1. The results are plotted in the graph of FIG. 5C.

[6] = tested on: Clone F3 (Panc-1 cells in which the snail gene was forcibly expressed); experiment: Cell growth of Clone F3 after siRNA transfection; assay type: cell-based, human; conditions: F3 cells cultured 2 to 3 days after siRNA transfection; in contrast to untreated cells and control siRNA; FIG. 3A
Method: First, snail cDNA (CDS 71-865, 795 bp) was amplified by PCR using the Panc-1 cells that had been stimulated with TGF-beta known as an EMT-inducing agent, and was inserted into the EcoR I-Xho I restriction sites of pcDNA3.1 (+) plasmid vector (Invitrogen Inc.) having a G418 resistance gene. The vector was introduced into the tumor cell lines by electroporation. The cells were cultured for 2 weeks and then drug-resistant cells were selected with G418 (2 mg/mL) and cloned.
In this example, the expression of HERV-H env gene was suppressed in Clone F3 and cell invasion capability and growth rate were measured.
(§2) First, 5×10^4 of F3 cells, as well as F3 cells (#1 to #4, Invitrogen Inc.) that had been cultured for 2 to 3 days after transfected with each of the 4 kinds of HERV-H env gene specific-siRNAs (shown below) by PEI complex method (Polyplus Inc.), were counted. The numbers of cells as plotted in the graph of FIG. 3A were taken as a standard of the growth rates.
(§3) For control experiments, F3 cells (Control) transfected with a control oligonucleotide from Invitrogen, F3 cells (siRNA-snail) transfected with snail gene specific-siRNA (SiRNA-snail #1) (shown below) and a Panc-1 cell line (Parent) were used.

[7] = tested on: Clone F3 (Panc-1 cells in which the snail gene was forcibly expressed); experiment: Cell invasion capability of Clone F3 (matrigel Invasion Chamber); assay type: cell-based, human; conditions: F3 cells transfected with siRNA; matrigel-coated membrane, 4 hours; FIG. 3B
Excerpt: as §2
Then, the recovered cells were placed on the upper surface of the Invasion Chamber (pore size 8 μm, BD Bioscience Inc.) whose membrane was coated with matrigel, and cultured for 4 hours (37° C., 5% CO2). After cells remaining on the upper surface of the membrane were removed completely, the cells invaded into the lower surface of the membrane were fixed and stained with Crystal Violet solution and counted under a microscope to evaluate the cell invasion capability.
as §3

[8] = lower peptide concentration (0.1 μg/mL)
[9] = peptide concentrations equal to or higher than 1 μg/mL

## FYSLLLYSL (listed as Homo sapiens) [HERV-H#2]
[1]; peptide 0.08 to 10 μg/mL, FIG. 4B
  amounts of gamma interferon produced (comparison among the HERV-H Env peptides): highest activity
[1]; FIG. 4B
  gamma interferon producing activity at lower concentrations: significantly reduced

## LLMWITQCF (listed as Homo sapiens) [NY-ESO-1, HLA-A24-restricted tumor antigen peptide clinically used in peptide vaccine treatments, reference compound]
[2]; [8]
  gamma interferon production capability: significantly reduced
[2]; [9]
  gamma interferon production capability: best production
[3]
  content of CD8+ cells in vivo: higher content of CD8+ cells

## NYAEPPWPL (listed as Homo sapiens) [HERV-H#3]
[1]; FIG. 4B
  gamma interferon producing activity at lower concentrations: significantly reduced

## SYLHHTINL (listed as Homo sapiens) [HERV-H#1]
[4]
  toxicity against tumor cells (killed Panc-1): highest toxicity
[2]; [8]
  gamma interferon production capability: still sufficient to induce gamma interferon production
[2]; peptide 10 μg/mL, 24 hours, FIG. 5B
  gamma interferon production: significantly higher production than the other peptides
[2]; [9]
  gamma interferon production capability: second best after NY-ESO-1
[3]
  content of CD8+ cells in vivo: higher content of CD8+ cells
[3]; no peptide administered to the mice, versus CD8+ cells induced by NY-ESO-1 peptide
  self-proliferation of the induced CD8+ cells: less active
[3]; peptides administered to the mice, versus CD8+ cells induced by NY-ESO-1 peptide
  proliferation activity of the induced CD8+ cells: higher than that of the CD8+ cells induced by NY-ESO-1 peptide
[5]; E:T ratio equal to or more than 25:1, FIG. 5C
  toxicity against tumor cells (COLO320): highest toxicity
[5]; two HLA-A24 positive healthy individuals, CD8+ cell:COLO320 = 50:1, 6 hours, FIG. 5A
  toxicity against tumor cells (killed COLO320): highest
[1]; inferred from the concentration dependence of gamma interferon production, P<0.001, t-test
  TCR-binding affinity: significantly higher than the other peptides
[1]; FIG. 4B
  gamma interferon producing activity at lower concentrations: maintained

## siRNA-snail: snail gene specific-siRNA; sense GCGAGCUGCAGGACUCUAAdTdT (SEQ ID NO: 18), antisense SEQ ID NO: 19 (sense GCGAGCUGCAGGACUCUAATT; antisense UUAGAGUCCUGCAGCUCGCTT; dTdT overhangs, further chemistry not given here)
[6]
  cell growth (numbers of cells): strongly suppressed
[7]
  cell invasion capability: significantly reduced
